In US5447931A, “New therapeutic use of heterocyclylpiperazines as 5-HT3 agonists and new compounds” (Sanofi, priority 1992, dated 1995):

Tested on: 5-HT3 receptors
Assay: Bezold-Jarisch effect (reduction of heart rate) in the anesthetized rat, intravenous administration
Format: in vivo, Sprague-Dawley rats
Conditions: antagonist against the heart rate reduction by compounds of formula (I)

SMILES | inhibition by antagonist of the Bezold-Jarisch effect evoked by compounds of formula (I)
CN1[C@@H]2CC[C@H]1C[C@@H](OC(=O)c1c[nH]c3ccccc13)C2 [ICS 205-930] | inhibited
COc1cc(N)c(Cl)cc1C(=O)NC1CN2CCC1CC2 (centres unmarked) [zacopride] | inhibited
